Measurements reported in PMC12787000 (Molecules, 2025).

Experiments:
[1] = tested on: HaCaT (human keratinocytes); assay: MTT cell viability assay, HaCaT; format: cell-based; conditions: 72 h
Experimental: (§1) A375, MRC-5, and HaCaT cell lines were obtained from the American Type Culture Collection (ATCC). 518A2 cell line was kindly provided by Dr. […]ć. All cell lines were cultured in RPMI 1640 medium supplemented with 2 g/L glucose, 10% fetal bovine serum (FBS), and antibiotics. […] Cell viability was assessed using the MTT assay (Sigma Aldrich, #M5655). […] After 72 h of incubation, absorbance was measured at 570 nm using a Multiskan SkyHigh microplate reader (Thermo Fisher Scientific, Helsinki, Finland). Values were corrected by subtracting the absorbance measured in wells containing cell-free medium with tested compounds.

[2] = tested on: MRC-5 (fetal fibroblasts); assay: MTT cell viability assay, MRC-5; format: cell-based; conditions: Homo sapiens, MRC5; MRC-5, MTT, 72 h
Experimental: as §1

AT1R = biological target: T1, AT1R (Homo sapiens, UniProt P30556); assay: Angiotensin II-induced Ca2+ release, Fluo-4 AM live-cell imaging; format: cell-based; conditions: 2 min; for Effect on AngII-induced Ca2+ increase (combination treatment): A375, 25 μM compound + 1 μM AngII; for Effect of compound alone on baseline Ca2+ signaling: A375, compound alone
T1 construct: endogenous in cells; host or cells: A375 melanoma cells (ATCC)
T1 sequence (P30556 1-359): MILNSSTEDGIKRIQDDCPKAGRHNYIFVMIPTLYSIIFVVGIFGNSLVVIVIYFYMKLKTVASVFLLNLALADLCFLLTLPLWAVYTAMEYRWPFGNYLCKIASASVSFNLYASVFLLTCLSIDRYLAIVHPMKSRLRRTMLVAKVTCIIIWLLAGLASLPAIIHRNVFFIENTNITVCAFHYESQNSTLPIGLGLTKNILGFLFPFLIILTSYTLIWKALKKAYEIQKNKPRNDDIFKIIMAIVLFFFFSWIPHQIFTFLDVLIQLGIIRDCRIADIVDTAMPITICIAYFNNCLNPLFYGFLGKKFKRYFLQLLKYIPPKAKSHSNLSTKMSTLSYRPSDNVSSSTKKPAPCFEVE
Experimental: Fluo-4 AM calcium indicator dye (F14201, Molecular Probes, Eugene, OR, USA) was used to observe Ca^2+ dynamics upon treatment, per manufacturer’s instructions. Briefly, 5000 A375 cells/well were seeded in 96-well optical bottom black cell culture plates (165305, Thermo Scientific). Fluo-4 AM stock solution in DMSO was mixed with equal volume of 20% Pluronic F-127 to assist in dispersion of AM esters before dilution into the loading medium. Twenty-four hours after seeding medium was removed, and cells were washed with HBBS without calcium and magnesium. Cells were stained in HBSS medium with 1.25 μM Fluo-4-AM for 30 min at 37 °C. After incubation, cells were washed and incubated in complete medium (10%FBS RPMI) to allow de-esterification for 30 min and then treated with 1 μM human Angiotensin II (A9525, Sigma Aldrich), 50 μM telmisartan, compounds 1, 3, and 8, or the combinations. Images were taken before addition of the treatment (0 min) and after 2 min of treatment on Zeiss PALM MicroBeam Axio Observer Z1 microscope (Carl Zeiss MicroImaging GmbH, Oberkochen, Germany) with Zeiss LD Plan-Neofluar 20×/0.4 Korr, ∞/0–1.5 mm lens and AxioVision SE64 Rel.4.9.1 software. Experiment was repeated three times. Integrated density of Fluo-4 fluorescence at 2 min of exposure to treatment was calculated with Image J, and normalized to the baseline fluorescence at time 0, in at least two random fields for each condition. Conditions were compared with one-way ANOVA and Tukey’s multiple comparisons test. p < 0.05 was considered statistically significant.

[3] = Stability in biological media (HPLC); format: physicochemical; conditions: room temperature
Experimental: To test stability in biological media, three best drug candidates (compounds 1, 3, and 8) were dissolved in 0.05 M hydrochloric acid, pH 2.0, and phosphate buffer, pH 5.5 (prepared by dissolving sodium dihydrogen phosphate dihydrate and disodium hydrogen phosphate in distilled water, followed by the adjustment of pH by ortho-phosphoric acid) and RPMI 1640 medium. Stock solutions in DMSO (2 mg/mL) were diluted by corresponding medium to obtain working solutions (0.02 mg/mL) and incubated at room temperature in 0.05 M hydrochloric acid (2 h), phosphate buffer pH 5.5 (5 h), and RPMI 1640 medium (72 h). Compounds were injected freshly prepared, and after incubation time, the differences in concentrations was expressed as percentages. Quantification was performed on Dionex Ultimate 3000 HPLC system (Thermo Fisher Scientific, Dreieich, Germany), consisting of Dionex Ultimate 3000 quaternary pump, autosampler, and DAD detector. The column was Zorbax Extend C18 (150 mm × 4.6 mm, 5 µm particle size). The mobile phase was 0.1% formic acid/acetonitrile = 50/50 (compound 1) and 60/40 (compounds 3 and 8). The column temperature was adjusted to 25 °C, and the flow rate was 0.5 mL/min. The detection was performed at 300 nm.

A375R cells = assay: Cell cycle distribution (PI, flow cytometry), A375R; format: cell-based; conditions: 25 µM, 72 h
Experimental: A375 and A375R cells were seeded in 6-well plates at a density of 150,000 cells per well. On the following day, the cells were treated with 25 µM concentrations of compounds 1, 3, and 8, as well as telmisartan. After 72 h of incubation, the cells were harvested using trypsin, washed with phosphate-buffered saline (PBS), fixed in ethanol, and stored at −20 °C until analysis. Ethanol-fixed cells were treated with RNase A (1 mg/mL) and stained with propidium iodide (PI; 400 µg/mL). A total of 20,000 events were recorded per sample. Quantitative analysis of the cell cycle phase distribution was performed by flow cytometry using a FACSCalibur flow cytometer (Becton Dickinson, San Jose, CA, USA) and BD CellQuest Pro Version 5.2.1 software. Experiment was performed three times. Cells under treatment were compared to controls for each cell phase separately with one-way ANOVA and Dunnett’s multiple comparison tests. p < 0.05 was considered statistically significant.

A375 cells [4] = assay: Mitochondrial morphology staining (MitoTracker Green FM); format: cell-based; conditions: A375, 25 μM, 24 h
Experimental: For imaging of the mitochondrial morphology in live cells, A375 cells seeded in 96-well optical bottom plates, as above, were treated for 24 h with 25 μM telmisartan, compound 1, 3, or 8. Treatment was washed away, and cells were stained with 500 nM MitoTracker Green FM (#9074, Cell signaling Technology, Danvers, MA, USA) in RPMI without serum for 30 min at 37 °C. Cells were imaged on Zeiss PALM MicroBeam Axio Observer Z1 microscope (Carl Zeiss MicroImaging GmbH, Oberkochen, Germany) with Zeiss LD Plan-Neofluar 20×/0.4 Korr, ∞/0–1.5 mm lens and AxioVision software. Mitochondrial shape was quantified in images from two biological experimental repeats, in three random fields for each condition, using Image J Analyze Particles function. Images were first processed to 8-bit binary, and circularity and aspect ratio (major axis/minor axis) were calculated and plotted with Prism 9 (GraphPad Software, LLC, Boston, MA, USA). Treatments were compared with untreated control using one-way ANOVA and Dunnett’s multiple comparisons test. p < 0.05 was considered statistically significant.

A375 cells [5] = assay: MTT cell viability assay, A375; format: cell-based; conditions: 72 h; for Effect on cell viability at single concentration: A375, 25 μM, MTT; for IC50: Homo sapiens, A-375, A375, MTT
Experimental: as §1

SMILES | IC50 [1] [µM] | IC50 [2] [µM] | Effect on AngII-induced Ca2+ increase (combination treatment) (AT1R) | Effect of compound alone on baseline Ca2+ signaling (AT1R) | Change in concentration after incubation in 0.05 M hydrochloric acid ([3]; 0.05 M HCl, pH 2.0, 2 h) [%] | Change in concentration after incubation in RPMI 1640 medium ([3]; RPMI 1640 medium, 72 h) [%] | Cell cycle distribution (A375R cells) | Mitochondrial network morphology (A375 cells [4]) | Effect on cell viability at single concentration (A375 cells [5]) | IC50 (A375 cells [5]) [µM] | Change in concentration after incubation in phosphate buffer pH 5.5 ([3]; phosphate buffer pH 5.5, 5 h) [%]
CCCc1nc2c(C)cc(-c3nc4ccccc4n3C)cc2n1Cc1ccc(-c2ccccc2C(=O)NC(Cc2ccccc2)C(=O)O)cc1 (stereo not shown) [compound 8, 2-{[4′-(1,7′-dimethyl-2′-propyl-1H-[2,5′]bibenzoimidazolyl-3′-ylmethyl)-biphenyl-2-carbonyl]-amino}-3-phenyl-propionic acid] | 70.8 ± 6.99 | 31.5 ± 5.87 | did not prevent AngII-induced Ca^2+ increase | no significant changes in the baseline Ca^2+ signaling | 3.04 | 2.00 | cell accumulation in the G0/G1 phase | dramatic fission and clumping of mitochondria | significant reductions in cell viability | 27.2 ± 0.58 | –
CCCc1nc2c(C)cc(-c3nc4ccccc4n3C)cc2n1Cc1ccc(-c2ccccc2C(=O)NC(Cc2ccc(O)cc2)C(=O)O)cc1 (stereo not shown) [compound 3, 2-{[4′-(1,7′-dimethyl-2′-propyl-1H-[2,5′]bibenzoimidazolyl-3′-ylmethyl)-biphenyl-2-carbonyl]-amino}-3-(4-hydroxy-phenyl)-propionic acid] | 63.46 ± 0.23 | 50.74 ± 0.28 | did not prevent AngII-induced Ca^2+ increase | no significant changes in the baseline Ca^2+ signaling | – | – | cell cycle profile comparable to that of the untreated control cells | disrupted the mitochondrial network to a greater extent than telmisartan | significant reductions in cell viability | 32.1 ± 2.38 | 3.49
